What was measured:
[1] = tested on: patients aged 40-80 years with moderate to severe COPD; assay: Clinical studies, ensifentrine vs placebo: quality of life responders (SGRQ −4 units) in patients with low FEV1 response; format: in vivo; conditions: morning trough FEV1 <100 mL at Week 24, pooled mITT
Protocol: (§1) Clinical studies were conducted to determine the efficacy of ensifentrine in treating COPD compared with placebo. Ensifentrine was administered by nebuliser at a dose of 3 mg twice daily (BID) for 24 weeks. The studies were multi-centre, randomized, double-blind, parallel-group, placebo-controlled trials.
(§2) The study population included patients aged 40-80 years with moderate to severe COPD (FEV1 30%-70% p.n., FEV1/forced vital capacity (FVC) ratio<0.7, with mMRC≥2). The randomization stratified (a) the use of stable background maintenance LAMA or LABA therapy use (approx. 50%. yes or no) and (b) cigarette smoking (current or former). Inhaled corticosteroid (ICS) maintenance therapy was permitted in up to 20% of patients under certain provisions.
(§3) The primary endpoint was change from baseline in average FEV1 area under the curve AUC0-12h post-dose at week 12. Also assessed were COPD symptoms and quality of life (QoL) in patients showing lower responses in terms of lung function, and in particular patients with: (i) improvement in average FEV1 AUC0-12h of less than 100 mL and (ii) improvement in morning trough FEV1 of less than 100 mL, less than 60 mL or less than 40 mL.
(§4) COPD symptoms were assessed using Evaluating Respiratory Symptoms (E-RS; EXACT-Respiratory Symptoms, The minimal clinically important difference (MCID) of the E-RS is a total score of −2 units. User Manual (Version 3.0), October 2014) and Transitional Dyspnea Index (TDI; Mahler et al, The MCID of the transition dyspnea index is a total score of one unit. COPD 2005, 2:99-103.) and QoL was assessed using the St. George's Respiratory Questionnaire (SGRQ; Jones, St. George's Respiratory Questionnaire: The MCID of the SGRQ is a total score of −4 units. COPD 2005, 2:75-79.).

[2] = tested on: patients aged 40-80 years with moderate to severe COPD; assay: Clinical studies, ensifentrine vs placebo: COPD symptom responders (E-RS −2 units or TDI +1 unit) in patients with low FEV1 response; format: in vivo; conditions: for Ensifentrine vs. Placebo Odds Ratio, E-RS (−2 Unit) or TDI (+1 Unit) Responders / Odds in favor of a response, E-RS (−2 Unit) or TDI (+1 Unit) Responders / Ensifentrine vs. Placebo Odds Ratio, TDI (+1 Unit) or E-RS (−2 Unit) Responders / Odds in favor of a response, TDI (+1 Unit) or E-RS (−2 Unit) Responders: logistic regression; for Ensifentrine vs. Placebo Odds Ratio, E-RS (−2 Unit) or TDI (+1 Unit) Responders / Odds in favor of a response, E-RS (−2 Unit) or TDI (+1 Unit) Responders / % E-RS (−2 Unit) or TDI (+1 Unit) Responders / % responders, E-RS (−2 Units) or TDI (+1 Unit) Responders / Ensifentrine v placebo Odds Ratio, E-RS (−2 Units) or TDI (+1 Unit) Responders / Odds in favour of response, E-RS (−2 Units) or TDI (+1 Unit) Responders / Ensifentrine vs. Placebo Odds Ratio, TDI (+1 Unit) or E-RS (−2 Unit) Responders / Odds in favor of a response, TDI (+1 Unit) or E-RS (−2 Unit) Responders / % TDI (+1 Unit) or E-RS (−2 Unit) Responders: pooled mITT; for % E-RS (−2 Unit) or TDI (+1 Unit) Responders / % responders, E-RS (−2 Units) or TDI (+1 Unit) Responders / % TDI (+1 Unit) or E-RS (−2 Unit) Responders: 3 mg BID nebuliser; for % responders, E-RS (−2 Units) or TDI (+1 Unit) Responders / Ensifentrine v placebo Odds Ratio, E-RS (−2 Units) or TDI (+1 Unit) Responders / Odds in favour of response, E-RS (−2 Units) or TDI (+1 Unit) Responders: improvement in morning trough FEV1 less than 40 mL (table line prints <60 mL); for proportion of patients with a clinically important improvement in symptoms: over 24 weeks
Protocol: as §1, §2, §3, §4

[3] = average FEV1 AUC0-12h <100 mL at Week 12, Week 6
[4] = average FEV1 AUC0-12h <100 mL at Week 12, Week 12
[5] = average FEV1 AUC0-12h <100 mL at Week 12, Week 24
[6] = morning trough FEV1 <60 mL at Week 6, Week 6
[7] = morning trough FEV1 <60 mL at Week 12, Week 12
[8] = morning trough FEV1 <60 mL at Week 24, Week 24
[9] = morning trough FEV1 <100 mL at Week 6, Week 6
[10] = morning trough FEV1 <100 mL at Week 12, Week 12
[11] = morning trough FEV1 <100 mL at Week 24, Week 24

COc1cc2c(cc1OC)-c1c/c(=N\c3c(C)cc(C)cc3C)n(CCNC(N)=O)c(=O)n1CC2 [Ensifentrine, N-(2-{(2E)-9,10-dimethoxy-4-oxo-2-[(2,4,6-trimethylphenyl)imino]-6,7-dihydro-2H-pyrimido[6,1-a]isoquinolin-3(4H)-yl}ethyl)urea]
Odds in favor of a response, SGRQ (−4 Unit) Responders ([1]; Week 24, logistic regression): 0.77 | % SGRQ (−4 Unit) Responders ([1]; responders at Week 24, 3 mg BID nebuliser): 48.1% | subjects achieving symptom MCID ([2]; FEV1 AUC0-12h <100 mL or morning trough FEV1 <100, <60 or <40 mL, overall conclusion): approximately 70% | Ensifentrine vs. Placebo Odds Ratio, E-RS (−2 Unit) or TDI (+1 Unit) Responders [2, 3]: 1.42 | Odds in favor of a response, E-RS (−2 Unit) or TDI (+1 Unit) Responders [2, 3]: 1.69 | Ensifentrine vs. Placebo Odds Ratio, E-RS (−2 Unit) or TDI (+1 Unit) Responders [2, 4]: 1.63 | Odds in favor of a response, E-RS (−2 Unit) or TDI (+1 Unit) Responders [2, 4]: 2.69 | Ensifentrine vs. Placebo Odds Ratio, E-RS (−2 Unit) or TDI (+1 Unit) Responders [2, 5]: 1.38 | Odds in favor of a response, E-RS (−2 Unit) or TDI (+1 Unit) Responders [2, 5]: 2.91 | % E-RS (−2 Unit) or TDI (+1 Unit) Responders ([2]; average FEV1 AUC0-12h <100 mL at Week 12, responders at Week 6): 66.3% | % E-RS (−2 Unit) or TDI (+1 Unit) Responders ([2]; average FEV1 AUC0-12h <100 mL at Week 12, responders at Week 12): 71.2% | % E-RS (−2 Unit) or TDI (+1 Unit) Responders ([2]; average FEV1 AUC0-12h <100 mL at Week 12, responders at Week 24): 72.7% | % responders, E-RS (−2 Units) or TDI (+1 Unit) Responders ([2]; Week 6): 67.1% | Ensifentrine v placebo Odds Ratio, E-RS (−2 Units) or TDI (+1 Unit) Responders ([2]; Week 6): 1.468 | Odds in favour of response, E-RS (−2 Units) or TDI (+1 Unit) Responders ([2]; Week 6): 1.453 | % responders, E-RS (−2 Units) or TDI (+1 Unit) Responders ([2]; Week 12): 70.4% | Ensifentrine v placebo Odds Ratio, E-RS (−2 Units) or TDI (+1 Unit) Responders ([2]; Week 12): 1.433 | Odds in favour of response, E-RS (−2 Units) or TDI (+1 Unit) Responders ([2]; Week 12): 2.338 | % responders, E-RS (−2 Units) or TDI (+1 Unit) Responders ([2]; Week 24): 73.0% | Ensifentrine v placebo Odds Ratio, E-RS (−2 Units) or TDI (+1 Unit) Responders ([2]; Week 24): 1.370 | Odds in favour of response, E-RS (−2 Units) or TDI (+1 Unit) Responders ([2]; Week 24): 3.238 | proportion of patients with a clinically important improvement in symptoms ([2]; increase in average FEV1 AUC0-12h less than 100 mL at Week 12): at least ⅔ | proportion of patients with a clinically important improvement in symptoms ([2]; increase in morning trough FEV1 less than 100 mL at Week 12): at least ⅔ | Ensifentrine vs. Placebo Odds Ratio, TDI (+1 Unit) or E-RS (−2 Unit) Responders [2, 6]: 1.42 | Odds in favor of a response, TDI (+1 Unit) or E-RS (−2 Unit) Responders [2, 6]: 1.35 | % TDI (+1 Unit) or E-RS (−2 Unit) Responders ([2]; morning trough FEV1 <60 mL at Week 6, responders at Week 6): 65.3% | Ensifentrine vs. Placebo Odds Ratio, TDI (+1 Unit) or E-RS (−2 Unit) Responders [2, 7]: 1.59 | Odds in favor of a response, TDI (+1 Unit) or E-RS (−2 Unit) Responders [2, 7]: 2.83 | % TDI (+1 Unit) or E-RS (−2 Unit) Responders ([2]; morning trough FEV1 <60 mL at Week 12, responders at Week 12): 71.3% | Ensifentrine vs. Placebo Odds Ratio, TDI (+1 Unit) or E-RS (−2 Unit) Responders [2, 8]: 1.36 | Odds in favor of a response, TDI (+1 Unit) or E-RS (−2 Unit) Responders [2, 8]: 2.74 | % TDI (+1 Unit) or E-RS (−2 Unit) Responders ([2]; morning trough FEV1 <60 mL at Week 24, responders at Week 24): 71.7% | Ensifentrine vs. Placebo Odds Ratio, E-RS (−2 Unit) or TDI (+1 Unit) Responders [2, 9]: 1.43 | Odds in favor of a response, E-RS (−2 Unit) or TDI (+1 Unit) Responders [2, 9]: 1.47 | % E-RS (−2 Unit) or TDI (+1 Unit) Responders ([2]; morning trough FEV1 <100 mL at Week 6, responders at Week 6): 66.1% | Ensifentrine vs. Placebo Odds Ratio, E-RS (−2 Unit) or TDI (+1 Unit) Responders [2, 10]: 1.73 | Odds in favor of a response, E-RS (−2 Unit) or TDI (+1 Unit) Responders [2, 10]: 2.96 | % E-RS (−2 Unit) or TDI (+1 Unit) Responders ([2]; morning trough FEV1 <100 mL at Week 12, responders at Week 12): 71.9% | Ensifentrine vs. Placebo Odds Ratio, E-RS (−2 Unit) or TDI (+1 Unit) Responders [2, 11]: 1.42 | Odds in favor of a response, E-RS (−2 Unit) or TDI (+1 Unit) Responders [2, 11]: 2.75 | % E-RS (−2 Unit) or TDI (+1 Unit) Responders ([2]; morning trough FEV1 <100 mL at Week 24, responders at Week 24): 72.0%

Source: patent US20250249006A1, “TREATMENT” (Verona Pharma PLC, priority 2024, published 2025)
